Among the test systems are ACHN renal; HOP-62 NSCLC; K-562 leukemia; M14 melanoma; MDA-MB-435; OVCAR-8 ovarian; SK-MEL-5 melanoma; U251 CNS; HL-60(TB) leukemia; SR leukemia.
Common to all, as to test: DTP human tumour cell line panel, 48 h

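Results reflect a 48-hour exposure of cells in 96-well plates to compound at five concentrations. The concentration for full growth arrest is given as TGI.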 A value given as a limit tells only on which side of the number the result lay.

In PubChem BioAssay (NCI) one finds TGI data, which are given here for 17 molecules.

In general, TGI refers to the concentration at which net growth stops. Low readings indicate more potent growth arrest, high ones less potent growth arrest.

Regarding `O=C1OC(=O)c2cc(S(=O)(=O)c3ccc4c(c3)C(=O)OC4=O)ccc21`, the TGI with ACHN renal, in the assay on HOP-62 NSCLC, with K-562 leukemia, with M14 melanoma, in the assay with MDA-MB-435 and in the assay with OVCAR-8 ovarian was over 100 µM each time. In addition, the TGI in the assay with SK-MEL-5 melanoma and in the assay with U251 CNS was over 100 µM each time.

On to `O=C1CCCCCCCCCCC1CN1CCCCC1` (configuration not stated), for which the total growth inhibition concentration (TGI) was over 100 µM in the assay on ACHN renal; over 100 µM in the assay with HL-60(TB) leukemia; over 100 µM in the assay with HOP-62 NSCLC; over 100 µM with K-562 leukemia; over 100 µM with OVCAR-8 ovarian; 28.3 µM in the assay with SK-MEL-5 melanoma. In addition, the TGI in the assay with SR leukemia and with U251 CNS was over 100 µM each time.

Consider `CCOC(=O)CNc1nc(=O)c2c(=O)oc(Cl)cc2o1`, for which the TGI in the assay with ACHN renal came out at 26.3 µM; with HOP-62 NSCLC it was 53.3 µM; in the assay with K-562 leukemia, 24.4 µM; in the assay with M14 melanoma, 49.1 µM; with MDA-MB-435 it was 35.4 µM; with OVCAR-8 ovarian, 23.2 µM. For the same molecule, the values for the TGI in the assay with SK-MEL-5 melanoma and in the assay on U251 CNS were over 100 µM and 85.3 µM, respectively.

Consider `CC(=O)OC1COC(Nc2nc(NCc3ccccc3)n(C)c(=O)c2N=O)C(OC(C)=O)C1OC(C)=O` (configuration not stated), for which the total growth inhibition concentration (TGI) in the assay with ACHN renal, with HL-60(TB) leukemia, in the assay with HOP-62 NSCLC, in the assay with K-562 leukemia, with M14 melanoma and in the assay on MDA-MB-435 was over 10 µM each time. Moreover, the TGI in the assay with OVCAR-8 ovarian, with SK-MEL-5 melanoma and in the assay with U251 CNS was over 10 µM in each case.

With `CC(C)(C)C(=O)OC12/C(=N/O)CCCCCC1c1ccccc12` (configuration not stated), the total growth inhibition concentration (TGI) turned out to be 31.8 µM with ACHN renal; 45.5 µM in the assay on HL-60(TB) leukemia; 37 µM with HOP-62 NSCLC; 55.4 µM in the assay with K-562 leukemia; 31.2 µM with M14 melanoma; 33.4 µM in the assay with OVCAR-8 ovarian. The TGI in the assay with SK-MEL-5 melanoma was 31.7 µM; in the assay with U251 CNS, 33.1 µM.

As for `CCOP(=O)(OCC)C(N)c1ccc(Cl)cc1` (configuration not stated), the TGI in the assay with ACHN renal, in the assay with HL-60(TB) leukemia, in the assay on M14 melanoma, in the assay with MDA-MB-435, in the assay with OVCAR-8 ovarian and in the assay on SK-MEL-5 melanoma was over 100 µM throughout. The molecule further returned a TGI in the assay on U251 CNS of over 100 µM.

In the case of `COc1ccc(CN=C(N)N)c2ccccc12`, the TGI in the assay on ACHN renal is over 100 µM; in the assay on HL-60(TB) leukemia it was 91 µM; in the assay on HOP-62 NSCLC, over 100 µM; with M14 melanoma it was over 100 µM; with OVCAR-8 ovarian it was over 100 µM; in the assay on SK-MEL-5 melanoma it was 38 µM. The same molecule yielded a TGI in the assay on U251 CNS of 74.7 µM.

For `O=C(O)Cc1ccc2[nH]c(O)c(C3=Nc4ccccc4C3=O)c2c1`, the TGI with ACHN renal, with HOP-62 NSCLC, with K-562 leukemia, in the assay on M14 melanoma, in the assay on MDA-MB-435 and with OVCAR-8 ovarian was over 100 µM each time. Moreover, the TGI is 55.6 µM in the assay with SK-MEL-5 melanoma, 93 µM with SR leukemia and over 100 µM in the assay on U251 CNS.

Consider `O=C1c2cc(Cl)ccc2NC(=NCCCl)C2CSCN12` (configuration not stated), for which the TGI in the assay on ACHN renal, with HOP-62 NSCLC, in the assay with K-562 leukemia, in the assay on M14 melanoma, in the assay on MDA-MB-435 and with OVCAR-8 ovarian was over 100 µM throughout. The TGI in the assay with SK-MEL-5 melanoma, in the assay on SR leukemia and in the assay with U251 CNS was over 100 µM throughout.

In the case of `COc1cc2cc(C(=O)N3CC(CCl)c4c3cc(N)c3ccccc43)[nH]c2c(OC)c1OC` (configuration not stated), the TGI in the assay on ACHN renal was 0.108 µM; with HOP-62 NSCLC, under 0.0109 µM; with K-562 leukemia, under 0.01 µM; with OVCAR-8 ovarian it was under 0.01 µM; in the assay on SR leukemia, under 0.01 µM; in the assay with U251 CNS, 0.0998 µM.

On to `Cc1c(C(=O)/C=C/c2ccccc2O)c(=O)n(-c2ccccc2)n1C`, for which the TGI in the assay on ACHN renal turned out to be 45.2 µM; with OVCAR-8 ovarian, 40.7 µM; in the assay on SK-MEL-5 melanoma, 28.6 µM; in the assay with U251 CNS, 35.9 µM.

As to `O=S(=O)(/N=C(\NO)Nc1ccc(Cl)cc1)c1cccc2nsnc12`, the TGI is over 100 µM in the assay with ACHN renal; 39.1 µM with HL-60(TB) leukemia; over 100 µM in the assay on HOP-62 NSCLC; over 100 µM in the assay with K-562 leukemia; over 100 µM in the assay on M14 melanoma; over 100 µM in the assay on MDA-MB-435. Further, the TGI in the assay with OVCAR-8 ovarian is over 100 µM; in the assay with SK-MEL-5 melanoma it was 29.5 µM; in the assay with U251 CNS, over 100 µM.

For the molecule `COc1ccc(C2C3COc4ccccc4C3=NN2c2ccccc2)cc1` (configuration not stated), the TGI with ACHN renal, in the assay with HOP-62 NSCLC, in the assay on K-562 leukemia, in the assay with M14 melanoma, in the assay with MDA-MB-435 and with OVCAR-8 ovarian was over 100 µM throughout. The TGI in the assay on SK-MEL-5 melanoma, in the assay with SR leukemia and with U251 CNS was over 100 µM in each case.

For `COc1ccc(N2C=Nn3c(nc4sc5c(c4c3=O)CCCC5)C2)cc1`, the TGI in the assay on ACHN renal was 53.2 µM; in the assay on HOP-62 NSCLC it was 13.5 µM; in the assay with K-562 leukemia, over 100 µM; in the assay on M14 melanoma it was over 100 µM; in the assay on MDA-MB-435 it was over 100 µM; in the assay on OVCAR-8 ovarian, over 100 µM. The TGI with SK-MEL-5 melanoma, in the assay with SR leukemia and in the assay with U251 CNS was over 100 µM throughout.

In the case of `Cc1c(C(=O)/C=C/c2ccc(N(C)C)cc2)c(=O)n(-c2ccccc2)n1C`, the TGI with ACHN renal, with OVCAR-8 ovarian and in the assay with U251 CNS was over 100 µM in each case.

`Cc1csc(/N=C\c2c(O)c3ccccc3oc2=O)n1`: the TGI in the assay with ACHN renal, in the assay with K-562 leukemia, with M14 melanoma, with MDA-MB-435, in the assay with OVCAR-8 ovarian and in the assay with SK-MEL-5 melanoma was over 100 µM each time. Besides, in the assay with U251 CNS, the TGI is over 100 µM.

For `O=c1[nH]nc(Cc2ccccc2)n1CCO`, the TGI in the assay with ACHN renal, in the assay on K-562 leukemia, in the assay on M14 melanoma, with MDA-MB-435, in the assay with OVCAR-8 ovarian and with SK-MEL-5 melanoma was over 100 µM throughout. For the same molecule, the TGI with U251 CNS was over 100 µM.
